Results: patent publication US10479814B2, “Adenosine receptor activation reagent and the uses of thereof” (Zhejiang Subtropical Crops Research Institute, priority 2014, dated 2019)

Assays:
[1] = tested on: A1 receptor; settings: cited from earlier work; for A1 selectivity: according to document record (Jacobson 1992); for selectivity to the A1 receptor (in words): existing A1 agonists
[2] = tested on: pentylenetetrazole induced convulsion; assay: pentylenetetrazole induced convulsion in mouse; assay type: in vivo; settings: antagonist ip 10 min before HEA 40 mg/kg, DPCPX 2 mg/kg, ZM241385 1 and 5 mg/kg
Procedure: Male ICR mouse, 18˜22 g; purchased from Animal Experiment Center of Wenzhou Medical University. Before experiment, animals were adapted to environment for at least 5 days. Kept at 25 °C, food and water were freely fed. Based on the weight, the healthy male ICR mice were randomly divided into control group (1% DMSO, ip), model group, CCPA group (0.1 mg·kg^−1, ip), HEA group (15 mg/kg, 40 mg/kg, 60 mg/kg), DPCPX group (2 mg·kg^−1, ip), ZM241385 group (1 mg·kg^−1, 5 mg·kg^−1, ip), DPCPX+HEA (2 mg·kg^−1+40 mg/kg, ip) group and ZM241385+HEA (1 mg·kg^−1+40 mg/kg, 5 mg·kg^−1+40 mg/kg ip) group.
The survival time and mortality after convulsion were respectively recorded for each group.

Row | Compound | A1 selectivity [1] | selectivity to the A1 receptor (in words) [1] | effect of antagonist on the anti-convulsion action of the HEA [2] | effect of antagonist on the anti-convulsion action of the HEA ([2]; listed as Zm241385)
1 | OC[C@H]1O[C@@H](n2cnc3c(N[C@H]4CC5CCC4C5)ncnc32)[C@H](O)[C@@H]1O (stereo partly shown) [S-ENBA] | up to 4700 fold | – | – | –
2 | OC[C@H]1O[C@@H](n2cnc3c(NC4CCCCC4)ncnc32)[C@H](O)[C@@H]1O [CHA] | – | strong selectivity to the A1 receptor | – | –
3 | Nc1nc(NCCc2ccc(O)cc2)nc2nc(-c3ccco3)nn12 [ZM241385] | – | – | no significant effect on the anti-convulsion effect of the HEA | no significant effect on the anti-convulsion action of the HEA
4 | OC[C@H]1O[C@@H](n2cnc3c(NC4CCCC4)nc(Cl)nc32)[C@H](O)[C@@H]1O [CCPA] | 1500 fold | strong selectivity to the A1 receptor | – | –
5 | OC[C@H]1O[C@@H](n2cnc3c(NC4CCCC4)ncnc32)[C@H](O)[C@@H]1O [CPA] | – | strong selectivity to the A1 receptor | – | –
